# Assay results taken from patent US20060094676A1, “Compositions and methods for treating cancer using compositions comprising an inhibitor of endothelin receptor activity” (priority 2004, published 2006).
# How the values were obtained:
# 7 melanoma lines = assay: MTS assay, number of viable cells; format: cell-based; conditions: 100 μM BQ788; all 7 melanoma lines tested
# HIF-1α = assay: Real-time RT-PCR of HIF-1α transcripts; format: cell-based, human; conditions: melanoma cell lines treated with BQ788; amplitude correlates with VEGF changes
# Method: Equal amounts of RNA from cells that were treated with BQ788 for 3 days were subjected to real-time RT-PCR analysis for the detection VEGF (A), HIF-1α (B) and Gravin (C) transcripts. Differences in expression levels are shown as x fold change and are statistically significant (p<0.05) unless a column in marked as non significant (N.S.). Sections of two representative tumors derived from a human melanoma cell line grown in nude mice and injected either with vehicle (D) or BQ788 (E) were stained with anti CD-31 to highlight blood vessels (brown staining, Lahav et al, 1999).
# RNA was prepared from the different cell lines in different culture conditions using SV total RNA isolation kit (Promega) according to the manufacturer's protocol. For each sample RNA concentration was determined using the total RNA nano procedure of an Agilent bioanalyzer. A stock of SK-MEL-28 RNA aliquots was prepared containing 10, 20, 50, 100, 200, 500 and 1000 ng/12 μl for use as a standard curve and kept in −80° C. For the experimental unknown samples, a stock of 100 ng/12 μl RNA aliquots from each cell line and condition was prepared and stored at −80° C. […] A standard curve of Ct versus RNA quantity was established and accordingly the Ct in the unknown samples was correlated to quantity of transcript. […]
# [1] = tested on: Me 191-I/GG (Primary) melanoma cells; assay: MTS assay of cell viability after BQ788; format: cell-based; conditions: incubation with BQ788 for seven days; Primary line
# Method: Cells were cultured on a matrigel matrix that was histologically examined after two weeks (A-F). While the primary melanoma cells remained on top of the gel only (A and B), a fraction of the Cut-met cells invaded the gel (C and D) and the LN-met cells invaded the matrix extensively (E and F). Cell lysates of the three lines were subjected to western blot analysis using an anti-ETRB Ab (G) and an anti-tubulin Ab (H). Untreated, control (vehicle treated), and BQ788 treated cells were subjected to MTS assay to quantify any reduction in cell number. The mean values were calculated and plotted (I) as the percentage of the vehicle treated value+/− SEM.
# Human melanoma cell lines Me191-1/GG (Primary), Me 190/DA (Cut-met), Me 275/EP (LN-met) were obtained from the Ludwig Institute (Epalinges, Switzerland) and SK-MEL-28 was obtained from the American Tissue Culture Collection (ATCC). […] After removal of the inserts, MTS solution was added to the well to quantify the cells that migrated through the insert and were attached to the bottom of the well by measuring the OD at 492 nm (Promega). […]
# To address the relationship between the level of progression of human melanoma and responsiveness to BQ788 treatment, 3 cell lines that had been grown in culture for a restricted number of passages were used. […] This effect was quantified using the MTS assay.
compound,measurement,setting,value
"CCCC[C@@H](NC(=O)[C@@H](Cc1cn(C(=O)OC)c2ccccc12)NC(=O)[C@H](CC(C)(C)C)NC(=O)N1[C@H](C)CCC[C@@H]1C)C(=O)O [BQ788, N-cis-2,6-dimethylpiperidinocarbonyl-L-γ-methylleucyl-D-1-methoxycarbonyltrptophanyl-D-norleucine]",number of viable cells,7 melanoma lines,very significant loss
same,HIF-1α RNA expression levels,HIF-1α,small but significant changes
same,reduction in cell number,[1],12%
